In patent US7875603B2, “Specific inhibitors for vascular endothelial growth factor receptors” (Nova Southeastern University, priority 2006, dated 2011):

What was measured:
Type in all cases: cell-based
[1] = tested on: Human umbilical vein endothelial cell; assay: In Vitro Angiogenesis Assay (morphogenesis / tube formation on Matrigel); set-up: key to In Vitro Angiogenesis Assay Results (score of extent of cellular networks): Individual cells, well separated (+++++); Cells begin to migrate and align themselves (++++); Cells begin to line but not sprouting (+++); Visible Sprouting (++); Closed polygons begins to form (+); conditions: for In Vitro Angiogenesis Assay Results (score of extent of cellular networks): HUVECs 10^4 cells/well on ECMatrix, inhibitors 1 mM and 10 mM, 8 hours at 37° C., higher score = greater inhibition of angiogenesis
Description: In Vitro Angiogenesis Assay
Human umbilical vein endothelial cell was purchased from Cambrex Co. (East Rutherford, N.J.) and maintained in EGM (Endothelial Growth Medium) supplemented with 2% FBS, 0.1% EGF, 0.1% Hydrocortisone, 0.1% GA-1000 and 0.4% BBE.
The morphogenesis assay on Matrigel was performed according to the manufacturer's instructions (Chemicon International). The ECMatrix™ kit consists of laminin, collagen type IV, heparan sulfate, proteoglycans, entactin and nidogen. It also contains various growth factors (TGF-β, FGF) and proteolytic enzymes (plasminogen, tPA, MMPs) that are normally produced in EHS tumors. The incubation condition was optimized for maximal tube-formation as follows: 50 μl of EC Matrix™ was suitably diluted in the ratio 9:1 with 10×diluent buffer and used for coating the 96-well plate. The coated plates were incubated at 37° C. for 1 hr. to allow the Matrix solution to solidify. In the meantime the HUVECs that were cultured for 24 hours in EGM with 2% FBS was trypsinised and re-suspended in the growth media and the cells were counted. After 1 hr. pre-incubation of the plate with Matrix solution, the HUVECs were plated at 10^4 cells/well in the absence or in the presence of different VEGFR inhibitors (1 mM and 10 mM). After 8 hours incubation at 37° C., the cell three-dimensional organization (cellular network structures) was examined under an inverted photomicroscope. Each treatment was performed in triplicate.
Activated endothelial cells form cellular networks (mesh like structures) resembling capillary tubes sprouting into the stromal space. The formation of these cellular networks is a dynamic process, which started migration and alignment of cells followed by the development of capillary tubes like structures, sprouting of new branches and finally the formation of the cellular networks. Although this in vitro angiogenesis kit is designed only as a qualitative assay, we have made an attempt to quantitate the degree of angiogenesis using a scoring method. The scoring was based on the extent of the cellular networks that were observed as follows:
Individual cells, well separated (+++++)
Cells begin to migrate and align themselves (++++)
Cells begin to line but not sprouting (+++)
Closed polygons begins to form (+).
According to our qualitative assessment, the higher the scoring the greater the efficiency of the compound for inhibiting endothelial cell mediated angiogenesis.

GI-101A = assay: Cytotoxicity towards GI-101A breast carcinoma cell line
MCF-7 = assay: Cytotoxicity towards MCF-7 breast carcinoma cell line

EC50 ([1]; Homo sapiens, estimated, in vitro angiogenesis assay, HUVEC, read-out: EC50 value for anti-antigenic effect) | Structure (SMILES) | In Vitro Angiogenesis Assay Results (score of extent of cellular networks) [1] | cytotoxicity towards GI-101A (GI-101A) | cytotoxicity towards MCF-7 (MCF-7)
 | CCC(CNCCO)Nc1nc2c(c(=O)n(C)c(=O)n2C)n1Cc1ccccc1 (stereo not shown) [Example 7] | ++ |  | 
 | CCCCCCCCCCCCCCCCCCOc1ccc(C(=O)CC(=O)Nc2ccc(Oc3ccc(C(=O)O)cc3)c(C(=O)O)c2)cc1 [Example 6] | ++ |  | 
 | CCCCCCCCCCCCCCCCCCOc1ccc(C(=O)CC(=O)Nc2ccc(Sc3cccc(C(=O)O)c3)c(C(=O)O)c2)cc1 [Example 5] | +++ |  | 
250 nM | COc1ccc(NCC(O)Cn2cnc3c2c(=O)n(C)c(=O)n3C)cc1 (stereo not shown) [Example 1] | +++++ | produced cytotoxicity | produced cytotoxicity
 | CCCCCCCOc1ccc(/C=N\NC(=O)c2ccc(Br)cc2)cc1 [Example 4] | +++ |  | 
 | CCCCCCCCCCOc1ccc(C(=O)N/N=C/c2ccc(OC)cc2)cc1 [Example 3] | ++++ |  | 
 | CCCCCCCCCCCCCCCCOc1ccc(C(NNS(=O)(=O)c2cccc(C(=O)O)c2)N2CCCCC2)cc1 (stereo not shown) [Example 2] | ++++ |  | 
